Key:
Assay type in all cases: in vivo
[1] = test system: ABUTH: Abutilon theophrasti; assay: Post-emergence herbicidal effect; settings: dosage 320 g/ha
How it was run: (§1)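 Weeds grown from seed in sandy loam in the greenhouse were sprayed at the one-leaf stage, 2 to 3 weeks after sowing. Compounds formulated as WP or EC were applied as aqueous suspension or emulsion with 0.5% additive at 600 l/ha. Activity was scored visually after about 3 weeks versus untreated controls (100% = dead, 0% = as control).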

VIOTR: Viola tricolor [2] = assay: Post-emergence herbicidal effect; settings: dosage 320 g/ha
How it was run: as §1

[3] = test system: ECHCG: Echinochloa crus-galli; assay: Post-emergence herbicidal effect; settings: dosage 320 g/ha
How it was run: as §1

SETVI: Setaria viridis [4] = assay: Post-emergence herbicidal effect; settings: dosage 320 g/ha
How it was run: as §1

STEME: Stellaria media [5] = assay: Post-emergence herbicidal effect; settings: dosage 320 g/ha
How it was run: as §1

VERPE: Veronica persica [6] = assay: Post-emergence herbicidal effect; settings: dosage 320 g/ha
How it was run: as §1

[7] = test system: AMARE: Amaranthus retroflexus; assay: Post-emergence herbicidal effect; settings: dosage 320 g/ha
How it was run: as §1

AVEFA: Avena fatua = assay: Pre-emergence herbicidal effect; settings: dosage 320 g/ha
How it was run: (§2)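 Visual damage rating after ~3 weeks in greenhouse, expressed as % activity relative to untreated pots, where 0% equals control and 100% means dead plants. Treatment was pre-emergence: WP or EC formulations applied to covering soil at 600 l/ha water with 0.5% additive.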

HORMU: Hordeum murinum = assay: Pre-emergence herbicidal effect; settings: pre-emergence; dosage 320 g/ha
How it was run: as §2

[8] = test system: POLCO: Polygonum convolvulus; assay: Pre-emergence herbicidal effect; settings: dosage 320 g/ha
How it was run: as §2

PHBPU: Ipomoea purpurea = assay: Pre-emergence herbicidal effect; settings: dosage 320 g/ha
How it was run: as §2

[9] = test system: ABUTH: Abutilon theophrasti; assay: Pre-emergence herbicidal effect; settings: dosage 320 g/ha
How it was run: as §2

LOLRI: Lolium rigidum = assay: Pre-emergence herbicidal effect; settings: dosage 320 g/ha
How it was run: as §2

VIOTR: Viola tricolor [10] = assay: Pre-emergence herbicidal effect; settings: dosage 320 g/ha
How it was run: as §2

[11] = test system: ALOMY: Alopecurus myosuroides; assay: Pre-emergence herbicidal effect; settings: pre-emergence; dosage 320 g/ha
How it was run: as §2

[12] = test system: ECHCG: Echinochloa crus-galli; assay: Pre-emergence herbicidal effect; settings: pre-emergence; dosage 320 g/ha
How it was run: as §2

[13] = test system: MATIN: Matricaria inodora; assay: Pre-emergence herbicidal effect; settings: pre-emergence; dosage 320 g/ha
How it was run: as §2

SETVI: Setaria viridis [14] = assay: Pre-emergence herbicidal effect; settings: pre-emergence; dosage 320 g/ha
How it was run: as §2

STEME: Stellaria media [15] = assay: Pre-emergence herbicidal effect; settings: pre-emergence; dosage 320 g/ha
How it was run: as §2

VERPE: Veronica persica [16] = assay: Pre-emergence herbicidal effect; settings: dosage 320 g/ha
How it was run: as §2

[17] = test system: AMARE: Amaranthus retroflexus; assay: Pre-emergence herbicidal effect; settings: pre-emergence; dosage 320 g/ha
How it was run: as §2

Row | SMILES | Herbicidal action against ABUTH [1] [%] | Herbicidal action against VIOTR (VIOTR: Viola tricolor [2]) [%] | Herbicidal action against ECHCG [3] [%] | Herbicidal action against SETVI (SETVI: Setaria viridis [4]) [%] | Herbicidal action against STEME (STEME: Stellaria media [5]) [%] | Herbicidal action against VERPE (VERPE: Veronica persica [6]) [%] | Herbicidal action against AMARE [7] [%] | Herbicidal action against AVEFA (AVEFA: Avena fatua) [%] | Herbicidal action against HORMU (HORMU: Hordeum murinum) [%] | Herbicidal action against POLCO [8] [%] | Herbicidal action against PHBPU (PHBPU: Ipomoea purpurea) [%] | Herbicidal action against ABUTH [9] [%] | Herbicidal action against LOLRI (LOLRI: Lolium rigidum) [%] | Herbicidal action against VIOTR (VIOTR: Viola tricolor [10]) [%] | Herbicidal action against ALOMY [11] [%] | Herbicidal action against ECHCG [12] [%] | Herbicidal action against MATIN [13] [%] | Herbicidal action against SETVI (SETVI: Setaria viridis [14]) [%] | Herbicidal action against STEME (STEME: Stellaria media [15]) [%] | Herbicidal action against VERPE (VERPE: Veronica persica [16]) [%] | also measured
1 | Cc1ccc2c(c1)C(Nc1ncc(C(C)(C)O)cn1)CCC2 (racemic) [Example 1.43] | 90 | 90 | 100 | 90 | 100 | 90 | 90 | 100 | 100 | 100 | 100 | 100 | 100 | 100 | 100 | 100 | 100 | 100 | 100 | 100 | Herbicidal action against AMARE [17]: 100%
2 | C=C(C)COC(C)(C)c1cnc(N[C@H]2c3cc(C)ccc3C[C@@H]2C)nc1 [Example 1.63] | 90 | 90 | 100 | 100 | 90 | 90 | 100 | 90 | 90 | 100 | 100 | 100 | 100 | 100 | 100 | 100 | 100 | 100 | 100 | 100 | Herbicidal action against AMARE [17]: 100%
3 | Cc1ccc2c(c1)[C@H](Nc1ncc(C(C)(O)C(F)(F)F)cn1)[C@@H](C)C2 (stereo partly drawn) [Example 1.11] | 90 | 90 | 100 | 100 | 100 | 90 | 100 | 100 | 100 | 100 | 80 | 100 | 100 | 100 | 100 | 100 | 100 | 100 | 100 | 100 | Herbicidal action against AMARE [17]: 100%
4 | COC(C)(C)c1cnc(N[C@H]2c3cc(C)ccc3C[C@@H]2C)nc1 [Example 1.24] | 90 | 90 | 100 | 90 | 100 | 90 | 90 | 100 | 100 | 100 | 90 | 100 | 100 | 100 | 100 | 100 | 100 | 100 | 100 | 100 | Herbicidal action against AMARE [17]: 100%

— patent US11477982B2, “2-amino-5-oxyalkyl-pyrimidine derivatives and their use for controlling undesired plant growth” (Bayer CropScience Aktiengesellschaft, priority 2017, dated 2022)
